The source of these data is paper PMC5719359 (Scientific Reports, 2017).

The test addresses T1, tubulin (Sus scrofa, UniProt P02550+P02554).
T1 construct: purified porcine tubulin; with alpha-tubulin (alpha/beta heterodimer)
The test is described as follows: fluorescence colchicine competition assay; the IC50 is from the in vitro tubulin polymerization assay. It is filed as biochemical.

Consider `COc1cc(OC)cc(N2CCN(C(=O)c3n[nH]nc3-c3ccccc3Cl)CC2)c1` [7p], for which the IC50 came to 2060 nM.

What is called IC50 is the concentration at which inhibition is half-maximal. Higher therefore signals weaker potency.
